Results: patent US11787780B2 (CORCEPT THERAPEUTICS INCORPORATED, priority 2020, dated 2023)

Tests used:
[1] = target: glucocorticoid receptor (GR) recombinant ligand binding domain (LBD) (Homo sapiens (Human), UniProt P04150); test: GR binding fluorescence polarisation (FP) assay; conditions: displacement of fluorescently tagged ligand
Description: Binding of test compounds to the glucocorticoid receptor (GR) is determined using a fluorescence polarisation (FP) assay utilising a recombinant ligand binding domain (LBD) of GR. The test compounds are assessed by their ability to displace a fluorescently tagged ligand and detection of the resulting decrease in fluorescence polarisation.

[2] = test system: induction of TAT by dexamethasone in HepG2 cells; test: Hep G2 TAT assay (inhibition of dexamethasone-induced TAT); format: cell-based, human; conditions: challenge of 100 nM dexamethasone, IC50 converted to Ki by Cheng and Prusoff equation

glucocorticoid receptor (GR) recombinant ligand binding domain (LBD), sequence (P04150 524-758): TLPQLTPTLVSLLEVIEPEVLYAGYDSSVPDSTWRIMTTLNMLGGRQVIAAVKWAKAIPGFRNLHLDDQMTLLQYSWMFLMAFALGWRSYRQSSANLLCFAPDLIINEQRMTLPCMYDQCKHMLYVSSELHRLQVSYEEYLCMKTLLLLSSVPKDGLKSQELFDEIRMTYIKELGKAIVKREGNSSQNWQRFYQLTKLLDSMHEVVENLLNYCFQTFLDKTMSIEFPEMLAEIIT

IC50 [1] [nM]	Structure (SMILES)	Ki [2] [nM]
7.5	Cc1cc2c(cnn2-c2ccc(=O)n(C)c2)cc1C1(Cc2ccc(F)cc2)CCN(S(=O)(=O)c2cnn(C)n2)C1 (stereo not drawn) [Example 324, 5-(5-(3-(4-fluorobenzyl)-1-((2-methyl-2H-1,2,3-triazol-4-yl)sulfonyl)pyrrolidin-3-yl)-6-methyl-1H-indazol-1-yl)-1-methylpyridin-2(1H)-one]	64
8.3	Cc1cc2c(cnn2-c2ccc(=O)n(C)c2)cc1C1(Cc2ccccc2)CCN(S(=O)(=O)c2ccc(Cl)cc2C#N)C1 (stereo not drawn) [Example 313, 2-((3-benzyl-3-(6-methyl-1-(1-methyl-6-oxo-1,6-dihydropyridin-3-yl)-1H-indazol-5-yl)pyrrolidin-1-yl)sulfonyl)-5-chlorobenzonitrile]	50
65	COc1cc2c(cnn2-c2ccc(F)c(C#N)c2)cc1C1(Cc2ccccc2)CCN(S(=O)(=O)c2cnn(C)n2)C1 (stereo not drawn) [Example 243, 5-(5-(3-benzyl-1-((2-methyl-2H-1,2,3-triazol-4-yl)sulfonyl)pyrrolidin-3-yl)-6-methoxy-1H-indazol-1-yl)-2-fluorobenzonitrile]	38
8	Cc1cc2c(cnn2-c2ccc(F)cc2)cc1C1(Cc2ccccc2)CCN(S(C)(=O)=O)C1 (stereo not drawn) [Example 16, 5-(3-benzyl-1-(methylsulfonyl)pyrrolidin-3-yl)-1-(4-fluorophenyl)-6-methyl-1H-indazole]	32
11	Cc1cc2c(cnn2-c2ccc(F)cc2)cc1C1(Cc2ccccc2)CCN(S(=O)(=O)C2CCOCC2)C1 (stereo not drawn) [Example 156]	36
189	CC(C)c1cc2c(cnn2-c2ccc(F)cc2)cc1C1(Cc2ccccc2)CCN(S(=O)(=O)c2cnn(C)c2)C1 (stereo not drawn) [Example 164]	89
5	CC(=O)N1CCC(Cc2ccccc2)(c2cc3cnn(-c4ccc(F)cc4)c3cc2C)C1 (stereo not drawn) [Example 190, 1-(3-benzyl-3-(1-(4-fluorophenyl)-6-methyl-1H-indazol-5-yl)pyrrolidin-1-yl)ethan-1-one]	55
55	Cc1cc2c(cnn2-c2ccc(=O)n(C(F)F)c2)cc1C1(Cc2ccccc2)CCN(S(=O)(=O)c2cnn(C)n2)C1 (stereo not drawn) [Example 247, 5-(5-(3-benzyl-1-((2-methyl-2H-1,2,3-triazol-4-yl)sulfonyl)pyrrolidin-3-yl)-6-methyl-1H-indazol-1-yl)-1-(difluoromethyl)pyridin-2(1H)-one]	240
334	C[C@@H]1CN(c2ccc3c(cnn3-c3ccc(F)cc3)c2)CCN1S(=O)(=O)c1ccnn1C [Example 65]	1480
9	Cc1cc2c(cnn2-c2ccc(F)cc2)cc1C1(Cc2ccc(F)cc2)CCN(S(C)(=O)=O)C1 (stereo not drawn) [Example 174]	28
13	Cc1cc2c(cnn2-c2ccc(=O)n(C)c2)cc1C1(Cc2ccccc2)CCN(S(=O)(=O)C2CC2)C1 (stereo not drawn) [Example 289, 5-(5-(3-benzyl-1-(cyclopropylsulfonyl)pyrrolidin-3-yl)-6-methyl-1H-indazol-1-yl)-1-methylpyridin-2(1H)-one]	69
233	Cc1cc2c(cnn2-c2ccc(F)cc2)cc1N1CCN(C(=O)c2cnn(C)c2)C2(CC2)C1 [Example 100]	1200
24	CCCn1cc(S(=O)(=O)N2CC[C@](Cc3ccccc3)(c3cc4cnn(-c5ccc(F)cc5)c4cc3C)C2)cn1 [Example 18, (R)-5-(3-benzyl-1-((1-propyl-1H-pyrazol-4-yl)sulfonyl)pyrrolidin-3-yl)-1-(4-fluorophenyl)-6-methyl-1H-indazole]	9
11	CCCn1cc(S(=O)(=O)N2CCC(Cc3nccs3)(c3cc4cnn(-c5ccc(F)cc5)c4cc3C)C2)cn1 (stereo not drawn) [Example 189]	91
170	Cc1cc2c(cnn2-c2ccc(=O)n(C)c2)cc1C1(Cc2ccccc2)CCN(C(=O)c2ccnnc2)C1 (stereo not drawn) [Example 327, 5-(5-(3-benzyl-1-(pyridazine-4-carbonyl)pyrrolidin-3-yl)-6-methyl-1H-indazol-1-yl)-1-methylpyridin-2(1H)-one]	540
